“And” between values parts separate entries of the source, which are not always exact repeats. Equal entries are not always repeated. Inconclusive results and toxic doses are left out.

The assay concerns BDF1 mice, intracerebral L1210 leukemia, survival T/C. The experiment in a line: NCI In Vivo Anticancer Drug Screen. Data for tumor model L1210 Leukemia (intracerebral) in B6D2F1 (BDF1) mice. The note with it: higher = longer survival. The protocol:
The antitumor activity of compounds was measured in mice bearing transplantable tumors. Survival or tumor size were measured and the results are expressed as the measurement made in the treated group (T) divided by the measurement made in the vehicle treated control group (C). The tumor model used in this assay is L1210 Leukemia (intracerebral) in B6D2F1 (BDF1) mice

The mark [1] stands for this setting: endpoint: mean survival time, dose: 500.0 mg/kg/injection, schedule: Q01DX001 (ip), vehicle: carboxymethylcellulose (CMC).
The mark [2] stands for this setting: endpoint: mean survival time, dose: 5.0 mg/kg/injection, schedule: Q01DX001 (ip), vehicle: carboxymethylcellulose (CMC).
Where [3] appears, read: endpoint: mean survival time, dose: 8.0 mg/kg/injection, schedule: Q01DX001 (ip), vehicle: carboxymethylcellulose (CMC).
[4] abbreviates: endpoint: mean survival time, dose: 12.0 mg/kg/injection, schedule: Q01DX001 (ip), vehicle: carboxymethylcellulose (CMC).
The mark [5] stands for this setting: endpoint: mean survival time, dose: 18.0 mg/kg/injection, schedule: Q01DX001 (ip), vehicle: carboxymethylcellulose (CMC).
[6] abbreviates: endpoint: mean survival time, dose: 300.0 mg/kg/injection, schedule: Q01DX001 (ip), vehicle: carboxymethylcellulose (CMC).
The mark [7] stands for this setting: endpoint: mean survival time, dose: 75.0 mg/kg/injection, schedule: Q01DX001 (ip), vehicle: carboxymethylcellulose (CMC).
[8] abbreviates: endpoint: mean survival time, dose: 150.0 mg/kg/injection, schedule: Q01DX001 (ip), vehicle: carboxymethylcellulose (CMC).

As for `CN(N=O)C(=O)NCCSc1ncnc2nc[nH]c12`, the T/C runs as follows: (endpoint: mean survival time, dose: 400.0 mg/kg/injection, schedule: Q01DX001 (ip), vehicle: carboxymethylcellulose (CMC)) 113 % of control; under setting [1], 121 % of control.

On to `NC(C/[N+]([O-])=N/O)C(=O)O` (centres undefined), for which the T/C runs as follows: (endpoint: mean survival time, dose: 25.0 mg/kg/injection, schedule: Q01DX009 (ip), vehicle: other) 96 % of control; (endpoint: mean survival time, dose: 50.0 mg/kg/injection, schedule: Q01DX001 (ip), vehicle: other) 97 % of control; (endpoint: mean survival time, dose: 50.0 mg/kg/injection, schedule: Q01DX009 (ip), vehicle: other) 98 % of control; (endpoint: mean survival time, dose: 100.0 mg/kg/injection, schedule: Q01DX001 (ip), vehicle: other) 98 % of control; (endpoint: mean survival time, dose: 100.0 mg/kg/injection, schedule: Q01DX009 (ip), vehicle: other) 91 % of control; (endpoint: mean survival time, dose: 200.0 mg/kg/injection, schedule: Q01DX001 (ip), vehicle: other) 101 % of control. Besides, for the setting “endpoint: mean survival time, dose: 400.0 mg/kg/injection, schedule: Q01DX001 (ip), vehicle: other”, the T/C was 106 % of control.

In the case of `O=NN(CCCl)C(=O)NC1CCC(C(=O)O)CC1` (centres undefined), the T/C is, setting by setting: (endpoint: mean survival time, dose: 8.0 mg/kg/injection, schedule: Q01DX001 (ip), vehicle: saline with Tween-80) 165 % of control; (endpoint: mean survival time, dose: 26.0 mg/kg/injection, schedule: Q01DX001 (ip), vehicle: saline with Tween-80) 181 % of control and 206 % of control; (endpoint: mean survival time, dose: 40.0 mg/kg/injection, schedule: Q01DX001 (ip), vehicle: saline with Tween-80) 185 % of control and 212 % of control; (endpoint: mean survival time, dose: 60.0 mg/kg/injection, schedule: Q01DX001 (ip), vehicle: saline with Tween-80) 204 % of control.

For `CC12CC3(C)CC(C)(C1)CC(NC(=O)N(CCF)N=O)(C2)C3`, the T/C (endpoint: mean survival time, dose: 82.0 mg/kg/injection, schedule: Q01DX001 (ip), vehicle: other) was 113 % of control.

Regarding `O=NN(CCCl)C(=O)Nc1cc(NC(=O)N(CCCl)N=O)cc(C(=O)O)c1`, the T/C runs as follows: (endpoint: mean survival time, dose: 1.5 mg/kg/injection, schedule: Q01DX001 (ip), vehicle: carboxymethylcellulose (CMC)) 108 % of control; (endpoint: mean survival time, dose: 3.0 mg/kg/injection, schedule: Q01DX001 (ip), vehicle: carboxymethylcellulose (CMC)) 106 % of control; under setting [2], 104 % of control; under setting [3], 104 % of control; under setting [4], 102 % of control; under setting [5], 110 % of control. Also, the T/C reads like this: (endpoint: mean survival time, dose: 26.0 mg/kg/injection, schedule: Q01DX001 (ip), vehicle: carboxymethylcellulose (CMC)) 106 % of control; (endpoint: mean survival time, dose: 40.0 mg/kg/injection, schedule: Q01DX001 (ip), vehicle: carboxymethylcellulose (CMC)) 93 % of control; (endpoint: mean survival time, dose: 60.0 mg/kg/injection, schedule: Q01DX001 (ip), vehicle: carboxymethylcellulose (CMC)) 87 % of control.

With `CN(C)C(=O)c1ccc(NC(=O)N(CCCl)N=O)cc1`, the T/C by setting is: (endpoint: mean survival time, dose: 8.0 mg/kg/injection, schedule: Q01DX001 (ip), vehicle: other) 110 % of control; (endpoint: mean survival time, dose: 24.0 mg/kg/injection, schedule: Q01DX001 (ip), vehicle: other) 121 % of control.

In the case of `CN(N=O)C(=O)NCCCCNC(=O)N(C)N=O`, the T/C is 103 % of control (endpoint: mean survival time, dose: 250.0 mg/kg/injection, schedule: Q01DX001 (ip), vehicle: carboxymethylcellulose (CMC)); 110 % of control under setting [6]; 102 % of control under setting [1]; 110 % of control (endpoint: mean survival time, dose: 750.0 mg/kg/injection, schedule: Q01DX001 (ip), vehicle: carboxymethylcellulose (CMC)).

Consider `O=NN(CCCl)C(=O)Nc1ccc(C(=O)O)cc1`, for which the T/C runs as follows: (endpoint: mean survival time, dose: 2.5 mg/kg/injection, schedule: Q01DX001 (ip), vehicle: carboxymethylcellulose (CMC)) 101 % of control; (endpoint: mean survival time, dose: 3.7 mg/kg/injection, schedule: Q01DX001 (ip), vehicle: carboxymethylcellulose (CMC)) 97 % of control; under setting [2], 106 % of control; (endpoint: mean survival time, dose: 6.0 mg/kg/injection, schedule: Q01DX001 (ip), vehicle: carboxymethylcellulose (CMC)) 100 % of control; (endpoint: mean survival time, dose: 7.5 mg/kg/injection, schedule: Q01DX001 (ip), vehicle: carboxymethylcellulose (CMC)) 101 % of control; under setting [3], 106 % of control. Further, the T/C under setting [4] was 108 % of control and the T/C under setting [5] is 104 % of control.

For `CCOC(=O)c1ccc(NC(=O)N(C)N=O)cc1`, the T/C reads like this: under setting [7], 94 % of control; under setting [8], 102 % of control; under setting [6], 97 % of control.

Take `CN(C)/N=N/c1nc[nH]c1C(N)=O`: the T/C is 106 % of control (endpoint: mean survival time, dose: 53.0 mg/kg/injection, schedule: Q01DX Z (ip), vehicle: carboxymethylcellulose (CMC)); 104 % of control (endpoint: mean survival time, dose: 80.0 mg/kg/injection, schedule: Q01DX Z (ip), vehicle: carboxymethylcellulose (CMC)); 112 % of control (endpoint: mean survival time, dose: 120.0 mg/kg/injection, schedule: Q01DX Z (ip), vehicle: carboxymethylcellulose (CMC)); 93 % of control (endpoint: mean survival time, dose: 180.0 mg/kg/injection, schedule: Q01DX Z (ip), vehicle: carboxymethylcellulose (CMC)); 101 % of control (endpoint: mean survival time, dose: 317.0 mg/kg/injection, schedule: Q01DX001 (ip), vehicle: carboxymethylcellulose (CMC)); 87 % of control (endpoint: mean survival time, dose: 482.0 mg/kg/injection, schedule: Q01DX001 (ip), vehicle: carboxymethylcellulose (CMC)). Besides, the T/C is 111 % of control (endpoint: median survival time, dose: 10.0 mg/kg/injection, schedule: Q01DX009 (ip), vehicle: carboxymethylcellulose (CMC)); 111 % of control (endpoint: median survival time, dose: 20.0 mg/kg/injection, schedule: Q01DX009 (ip), vehicle: carboxymethylcellulose (CMC)); 114 % of control (endpoint: median survival time, dose: 40.0 mg/kg/injection, schedule: Q01DX009 (ip), vehicle: carboxymethylcellulose (CMC)); 117 % of control (endpoint: median survival time, dose: 80.0 mg/kg/injection, schedule: Q01DX009 (ip), vehicle: carboxymethylcellulose (CMC)); 118 % of control (endpoint: median survival time, dose: 160.0 mg/kg/injection, schedule: Q01DX009 (ip), vehicle: carboxymethylcellulose (CMC)); 103 % of control (endpoint: median survival time, dose: 200.0 mg/kg/injection, schedule: Q01DX009 (ip), vehicle: carboxymethylcellulose (CMC)). Besides, the T/C (endpoint: median survival time, dose: 300.0 mg/kg/injection, schedule: Q01DX009 (ip), vehicle: carboxymethylcellulose (CMC)) was 94 % of control; the T/C (endpoint: median survival time, dose: 320.0 mg/kg/injection, schedule: Q01DX009 (ip), vehicle: carboxymethylcellulose (CMC)) is 108 % of control; the T/C (endpoint: median survival time, dose: 400.0 mg/kg/injection, schedule: Q01DX009 (ip), vehicle: carboxymethylcellulose (CMC)) is 111 % of control; the T/C (endpoint: median survival time, dose: 600.0 mg/kg/injection, schedule: Q01DX009 (ip), vehicle: carboxymethylcellulose (CMC)) is 94 % of control.

Consider `N#Cc1ccc(NC(=O)N(CCCl)N=O)cc1`, for which the T/C (endpoint: mean survival time, dose: 9.37 mg/kg/injection, schedule: Q01DX001 (ip), vehicle: carboxymethylcellulose (CMC)) is 95 % of control; the T/C (endpoint: mean survival time, dose: 18.75 mg/kg/injection, schedule: Q01DX001 (ip), vehicle: carboxymethylcellulose (CMC)) is 91 % of control; the T/C (endpoint: mean survival time, dose: 37.5 mg/kg/injection, schedule: Q01DX001 (ip), vehicle: carboxymethylcellulose (CMC)) was 104 % of control; the T/C under setting [7] is 102 % of control; the T/C under setting [8] is 90 % of control.

For the molecule `O=C1C=C(N2CC2)C(=O)C(N2CC2)=C1N1CC1`, the T/C was 94 % of control (endpoint: mean survival time, dose: 0.01 mg/kg/injection, schedule: Q01DX009 (ip), vehicle: saline); 100 % of control (endpoint: mean survival time, dose: 0.02 mg/kg/injection, schedule: Q01DX009 (ip), vehicle: saline); 116 % of control (endpoint: mean survival time, dose: 0.05 mg/kg/injection, schedule: Q01DX009 (ip), vehicle: saline).
